From patent US11525018B2, “Methods of preparing compositions for containers and other articles and methods of using same” (SWIMC LLC, priority 2014, dated 2022)

system: MCF-7, clone WS8, cells; assay: MCF-7 cell proliferation assay of estrogenic activity; assay type: cell-based, human; conditions: logarithmic (base 10) Relative Proliferative Effect vs 17-beta estradiol (EC50 ratio times 100), cell proliferation as total DNA; values 'expected or measured'
Source text: The MCF-7 assay is a useful test for assessing whether a polyhydric phenol compound is appreciably non-estrogenic. The MCF-7 assay uses MCF-7, clone WS8, cells to measure whether and to what extent a substance induces cell proliferation via estrogen receptor (ER)-mediated pathways. The method is described in “Test Method Nomination: MCF-7 Cell Proliferation Assay of Estrogenic Activity” submitted for validation by CertiChem, Inc. to the National Toxicology Program Interagency Center for the Evaluation of Alternative Toxicological Methods (NICEATM) on Jan. 19, 2006 (available online at http://iccvam.niehs.nih.gov/methods/endocrine/endodocs/SubmDoc.pdf).
A brief summary of the method of the aforementioned MCF-7 assay is provided below. MCF-7, clone WS8, cells are maintained at 37° C. in RMPI (or Roswell Park Memorial Institute medium) containing Phenol Red (e.g., GIBCO Catalog Number 11875119) and supplemented with the indicated additives for routine culture. An aliquot of cells maintained at 37° C. are grown for 2 days in phenol-free media containing 5% charcoal stripped fetal bovine serum in a 25 cm^2 tissue culture flask. Using a robotic dispenser such as an epMotion 5070 unit, MCF-7 cells are then seeded at 400 cells per well in 0.2 ml of hormone-free culture medium in Corning 96-well plates. The cells are adapted for 3 days in the hormone-free culture medium prior to adding the chemical to be assayed for estrogenic activity. The media containing the test chemical is replaced daily for 6 days. At the end of the 7-day exposure to the test chemical, the media is removed, the wells are washed once with 0.2 ml of HBSS (Hanks' Balanced Salt Solution), and then assayed to quantify amounts of DNA per well using a micro-plate modification of the Burton diphenylamine (DPA) assay, which is used to calculate the level of cell proliferation.
RPE is the ratio between the EC50 of the test chemical and the EC50 of the control substance 17-beta estradiol times 100, where EC50 is “effective concentration 50%” or half-maximum stimulation concentration for cell proliferation measured as total DNA in the MCF-7 assay.

Compound | Log RPE
CC(C(=O)O)(c1ccc(O)cc1)c1ccc(O)cc1 [Structure 5] | less than −4
CC(c1ccc(O)cc1)(c1ccc(O)cc1)c1ccc(O)cc1 [Structure 3] | −3
O=S(=O)(c1ccc(O)cc1)c1ccc(O)cc1 [Bisphenol S, reference compound] | −2
Cc1cc(Cc2cc(C)cc(C3(C)CCCCC3)c2O)c(O)c(C2(C)CCCCC2)c1 [Structure 13] | less than −4
Cc1cc(CCc2cc(C)c(O)c(C)c2)cc(C)c1O [Structure 2] | −3
CC(c1ccccc1)(c1ccc(O)cc1)c1ccc(O)cc1 [Structure 4] | −3
Cc1cc(Cc2cc(C)cc(C(C)(C)C)c2O)c(O)c(C(C)(C)C)c1 [Structure 9] | less than −4
C/C=C(/C(=C/C)c1ccc(O)cc1)c1ccc(O)cc1 [dienestrol, reference compound] | about 2
CC(C)(c1ccc(O)cc1)c1ccc(C(C)(C)c2ccc(O)cc2)cc1 [Structure 10] | less than −4
CC(C)(c1cc(Br)c(O)c(Br)c1)c1cc(Br)c(O)c(Br)c1 [Structure 16] | −3
C[C@]12CC[C@@H]3c4ccc(O)cc4CC[C@H]3[C@@H]1CC[C@@H]2O [17β-estradiol, reference compound] | 2.00
Oc1ccccc1Cc1ccccc1O [Structure 11] | less than −4
CCc1cc(Cc2cc(CC)cc(C(C)(C)C)c2O)c(O)c(C(C)(C)C)c1 [Structure 15] | less than −4
O=c1c(-c2ccc(O)cc2)coc2cc(O)cc(O)c12 [Genistein, reference compound] | −2
Cc1cc(Cc2cc(C)c(O)c(C)c2)cc(C)c1O [Structure 6] | less than −4
CC/C(=C(/CC)c1ccc(O)cc1)c1ccc(O)cc1 [diethylstilbestrol, reference compound] | about 2
CCCC(c1cc(C(C)(C)C)c(O)cc1C)c1cc(C(C)(C)C)c(O)cc1C [Structure 7] | less than −4
Cc1cc(C(C)(C)c2cc(C)c(O)c(C)c2)cc(C)c1O [Structure 1] | −2
Oc1ccc(Cc2ccc(O)cc2)cc1 [Bisphenol F, reference compound] | −2
O=C(OCC1CCC(COC(=O)c2cccc(O)c2)CC1)c1cccc(O)c1 (stereo not shown) [Example 2, Run III, bis(3-hydroxybenzoate) of Cyclohexanedimethanol] | less than −4
CC(C)(C)c1cc(O)c(C(C)(C)C)cc1O [Structure 12] | less than −4

biological target: T1, human estrogen receptor (Homo sapiens, UniProt P03372); assay: suitable in vitro assay correlated to the MCF-7 assay (estrogenic activity); assay type: cell-based; conditions: in vitro assay whose results are directly correlated to the MCF-7 assay through common reference compounds
T1 sequence (P03372 1-595): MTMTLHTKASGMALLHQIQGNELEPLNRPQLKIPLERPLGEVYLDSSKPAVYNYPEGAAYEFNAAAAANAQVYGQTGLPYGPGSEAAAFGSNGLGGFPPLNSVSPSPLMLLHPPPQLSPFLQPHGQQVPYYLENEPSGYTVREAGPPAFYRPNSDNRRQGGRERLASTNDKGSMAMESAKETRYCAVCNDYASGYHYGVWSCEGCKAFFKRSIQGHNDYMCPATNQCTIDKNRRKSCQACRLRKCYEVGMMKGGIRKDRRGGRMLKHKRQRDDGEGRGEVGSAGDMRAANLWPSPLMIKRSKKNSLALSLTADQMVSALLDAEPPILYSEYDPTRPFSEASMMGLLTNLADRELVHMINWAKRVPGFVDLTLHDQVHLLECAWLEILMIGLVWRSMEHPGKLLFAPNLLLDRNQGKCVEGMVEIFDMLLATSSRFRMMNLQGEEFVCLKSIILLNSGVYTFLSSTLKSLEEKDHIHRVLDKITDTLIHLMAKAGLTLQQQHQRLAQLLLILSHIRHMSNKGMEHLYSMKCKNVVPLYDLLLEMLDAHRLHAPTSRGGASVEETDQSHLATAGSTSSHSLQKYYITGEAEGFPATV

Compound | estrogenic activity
CCCC(c1cc(C(C)(C)C)c(O)cc1C)c1cc(C(C)(C)C)c(O)cc1C [Structure 7, 4,4′-butylidenebis(2-t-butyl-5-methylphenol)] | do not exhibit appreciable estrogenic activity
Cc1cc(Cc2cc(C)cc(C(C)(C)C)c2O)c(O)c(C(C)(C)C)c1 [Structure 9] | do not exhibit appreciable estrogenic activity
CC(C)(C)c1cc(O)c(C(C)(C)C)cc1O [Structure 12, 2,5-di-t-butylhydroquinone] | do not exhibit appreciable estrogenic activity
Cc1cc(Cc2cc(C)c(O)c(C)c2)cc(C)c1O [Structure 6, 4,4′-methylenebis(2,6-dimethylphenol)] | do not exhibit appreciable estrogenic activity
CC(C)(C)c1cc(Cc2cc(C(C)(C)C)c(O)c(C(C)(C)C)c2)cc(C(C)(C)C)c1O [Structure 8, 4,4′-methylenebis(2,6-di-t-butylphenol)] | do not exhibit appreciable estrogenic activity

system: not listed separately; assay: suitable genotoxicity assays (e.g., Ames II assay); conditions: not given
Procedure: A solution of 4,4′-methylenebis(2,6-di-t-butylphenol) (500 grams, 1.076 moles obtained from Albemarle Corporation) in anhydrous dimethylformamide (1.5 liters) was cooled to −10° C. and a solution of sodium tert-pentoxide (374 grams, 3.23 moles) in anhydrous dimethylformamide (1.5 liters) was added drop wise at −10 to −5° C. The mixture was stirred for 30 minutes at −10° C. Epichlorohydrin (1.9 liters, 24.2 moles) was added via dropping funnel at −10 to −5° C. The solution was allowed to warm up to room temperature and then was heated for 16 hours at a temperature of from 75 to 82° C. After cooling down to ambient temperature, the mixture was added to cold tap water (12 liters). Ethyl acetate (5 liters) was added to the mixture, which was stirred for 10 minutes and separated. The aqueous layer was extracted again with additional ethyl acetate (3 liters). The combined ethyl acetate extracts were washed twice with brine (2×6 liters), dried over anhydrous sodium sulfate (600 grams), and filtered. The solvent was removed under reduced pressure to give 887 grams of crude product as a purple oil. The crude product was dissolved in toluene (600 milliliters) and passed over a silica gel pad (1.4 kilograms), and eluted with a mixture of toluene and heptane (8 parts toluene to 2 parts heptane). The fractions containing product were combined and evaporated under reduced pressure. […]

Compound | genotoxicity
CC(C)(C)c1cc(Cc2cc(C(C)(C)C)c(OCC3CO3)c(C(C)(C)C)c2)cc(C(C)(C)C)c1OCC1CO1 (stereo not shown) [Diglycidyl ether of 4,4′-methylenebis(2,6-di-tert-butylphenol)] | non-genotoxic
CCCC(c1cc(C(C)(C)C)c(OCC2CO2)cc1C)c1cc(C(C)(C)C)c(OCC2CO2)cc1C (stereo not shown) [Diglycidyl ether of 4,4′Butylidenebis(2-t-butyl-5-methylphenol))] | non-genotoxic
